The target in this series is IRF4. The settings on record: ASO.

This note sets out measurements from the OligoGym collection.

Where “and” joins values, the source holds several entries; their conditions need not be identical. Equal values may be shown once. After the bases stand the sugars from the 5' end (letter, count) and the backbone: PS all phosphorothioate, else s phosphorothioate and o phosphodiester by linkage. Methylation of C is not given here. e = 2'-O-(2-methoxyethyl) (MOE); k = constrained ethyl (cEt); d = 2'-deoxy (DNA)

As to GTACTTGCCGCTGTCG (sugars k4 d8 k4, PS), the target mRNA inhibition (SK-MEL-28, 4 µM) turned out to be 36%.

Turning to TCCCAGTAGATCCTGC (sugars k3 d10 k3, PS), under “SK-MEL-28, 4 µM”, the target mRNA inhibition was found to be 40%. Take “TGCTTGAGGTTTTCCT (sugars kdddddddddkekeke, PS)”: the target mRNA inhibition (MM.1R, 1 µM) is 9%. As to CCGCAATTCTCCTCAA (sugars k3 d10 k3, PS), for the setting “SK-MEL-28, 4 µM”, the target mRNA inhibition was 20%. Take “GATTATATACTGGTTG (sugars kkdddddddddkdkdk, PS)”: for the setting “MM.1R, 1 µM”, the target mRNA inhibition is 35%. As for GGGAATCCTTAATTAT (sugars k3 d10 k3, PS), the target mRNA inhibition (SK-MEL-28, 4 µM) came to 12%. Consider CCTCAGACTGTGCTGC (sugars k3 d10 k3, PS), for which the target mRNA inhibition (SK-MEL-28, 4 µM) stood at 30%. The same measure, in the same setting: for AGCAATTGAAATGGAG (sugars k3 d10 k3, PS) the value was 22%.

As to “GTGTGCTTGCCAAGCC (sugars kddddddddddkekek, PS)”, the target mRNA inhibition (MM.1R, 1 µM) was 40% and 23%. On the same count and under the same terms, as for TCGAATCTGCCCAAAG (sugars k3 d10 k3, PS), the figure is 23%. For CGTAATACAAATAAAG (sugars k3 d10 k3, PS), the target mRNA inhibition (SK-MEL-28, 4 µM) was found to be 3%. Same read-out and setting: for GCAGAAGCTGGTTGGC (sugars k3 d10 k3, PS) the value was 58%; for TCAAATCGACTGCCAC (sugars k3 d10 k3, PS), 54%; for GCATTTTCCAGAAAAT (sugars k4 d8 k4, PS), 37%. In the case of “TCAGTTTGTGAAGCAT (sugars e1 k2 d9 k2 e2, PS)”, where the note is “MM.1R, 1 µM”, the target mRNA inhibition came to 47%. Consider CCGAAAAGACTGGAGT (sugars k3 d10 k3, PS), for which the target mRNA inhibition (SK-MEL-28, 4 µM) is 57%. Still for that read-out and setting: as for AGGGAACAGATAGTTA (sugars k3 d10 k3, PS), the figure is 34%. As to AATGGCAGCACCGTGT (sugars k3 d10 k3, PS), the target mRNA inhibition (MM.1R, 1 µM) amounted to 0%. Turning to GAGGGTCTGGAAACTC (sugars k3 d10 k3, PS), the target mRNA inhibition (SK-MEL-28, 4 µM) is -4%. Same read-out and setting: as for TTCAAAGCGCACCGCA (sugars k3 d10 k3, PS), the figure is 49%. Regarding TGCTTTGGGCACCAAA (sugars k3 d10 k3, PS), the target mRNA inhibition (SK-MEL-28, 4 µM) turned out to be 52%. The same measure, in the same setting: for GTTTATTTCCTACTCT (sugars k4 d8 k4, PS) the value was 44%; for GAGCTGCTTGGCTCCT (sugars k3 d10 k3, PS), 19%; for CCCATCTGTCTCAGTT (sugars k3 d10 k3, PS), 66%.

As to AGGCACATCAATGTTT (sugars k3 d10 k3, PS), the target mRNA inhibition (SK-MEL-28, 4 µM) is 51%. With “AATGTGTATTACTCTT (sugars kdddddddddkekeke, PS)”, for the setting “MM.1R, 1 µM”, the target mRNA inhibition was 12% and 15%.

As to CCTAGGACTAAGGACA (sugars k3 d10 k3, PS), under “MM.1R, 1 µM”, the target mRNA inhibition was -3%. On to CAAGACCTAATCTACA (sugars k3 d10 k3, PS), for which the target mRNA inhibition (SK-MEL-28, 4 µM) came out at 12%.

As for TGAGATAAGAAGCACT (sugars k3 d10 k3, PS), the target mRNA inhibition (SK-MEL-28, 4 µM) came out at 20%. Still for that read-out and setting: for GAGCTTTCTTTGCCTC (sugars k3 d10 k3, PS) the value was 13%; for CCACATAACTCAGGCA (sugars k3 d10 k3, PS), 70%.

Turning to ACCTCAGTTTGTGAAG (sugars k3 d10 k3, PS), the target mRNA inhibition (SK-MEL-28, 4 µM) amounted to 39%. On the same count and under the same terms, for ATGCAAGCCCGTTAAT (sugars k3 d10 k3, PS) the value was 4%.

Turning to “ATGTTAGCCAATTCCT (sugars kkdddddddddkekek, PS)”, the target mRNA inhibition (MM.1R, 1 µM) is 28% and 44%. For GACCATGTTACACTTT (sugars k3 d10 k3, PS), the target mRNA inhibition (SK-MEL-28, 4 µM) was 50%. The same measure, in the same setting: as for TTATGCATGTTCCTCA (sugars k3 d10 k3, PS), the figure is 57%. Same read-out and setting: for TCCAGGTGGCTCAGCA (sugars k3 d10 k3, PS) the value was 41%; for CCTCGCTCAAAGACCA (sugars k3 d10 k3, PS), 50%. On to CACTGCCGTGATCTGA (sugars k3 d10 k3, PS), for which the target mRNA inhibition (MM.1R, 1 µM) worked out at 9%.

Take “GAAGCATTTTATCATC (sugars kkkddddddddkekek, PS)”: the target mRNA inhibition (MM.1R, 1 µM) is -5%.

In the case of AGGAAGCACTGGCATC (sugars k3 d10 k3, PS), under “SK-MEL-28, 4 µM”, the target mRNA inhibition was determined as 57%. With “GAAGCATTTTATCATC (sugars kdddddddddkekeke, PS)”, the target mRNA inhibition (MM.1R, 1 µM) was 4%. AATTACTGCTTGAGGT (sugars k3 d10 k3, PS): the target mRNA inhibition (SK-MEL-28, 4 µM) was 58%. The same measure, in the same setting: for GAAGCACTGGCATTGA (sugars k3 d10 k3, PS) the value was 55%. As for ATTTATAACCGGTAGA (sugars k3 d10 k3, PS), for the setting “MM.1R, 1 µM”, the target mRNA inhibition turned out to be 28%.

Consider “GCAGTGATGTCAGGTT (sugars k2 d9 e3 k2, PS)”, for which the target mRNA inhibition by setting is: (MM.1R, 0.074 µM) 20%; (MM.1R, 0.222 µM) 48%; (MM.1R, 0.666 µM) 73%; (MM.1R, 1 µM) 81%; (MM.1R, 2 µM) 91%. As for “GAAGTTTACACTGGAT (sugars kkdddddddddkekek, PS)”, the target mRNA inhibition runs as follows: (MM.1R, 0.074 µM) 6%; (MM.1R, 0.222 µM) 22%; (MM.1R, 0.666 µM) 49%; (MM.1R, 1 µM) 55%; (MM.1R, 2 µM) 75%. On to GGTAGTAGACCACAGT (sugars k3 d10 k3, PS), for which, under “MM.1R, 1 µM”, the target mRNA inhibition amounted to 23%.

Consider CAATCTTAACCTGGAG (sugars k3 d10 k3, PS), for which the target mRNA inhibition (MM.1R, 1 µM) was 40%. Still for that read-out and setting: as for ATTCCAAACCTTAAGC (sugars k3 d10 k3, PS), the figure is -1%.

As to CATAACTCAGGCAAGG (sugars k3 d10 k3, PS), the target mRNA inhibition (SK-MEL-28, 4 µM) is 36%. On the same count and under the same terms, for GATGCAGCTGGCCACA (sugars k3 d10 k3, PS) the value was 73%. For CAAATTAAAGAGCGCA (sugars k3 d10 k3, PS), the target mRNA inhibition (SK-MEL-28, 4 µM) turned out to be 57%. The same measure, in the same setting: for GGGAACAAAAGGTTCC (sugars k3 d10 k3, PS) the value was -11%. As to “AGGCACATCAATGTTT (sugars kddddddddddkekek, PS)”, under “MM.1R, 1 µM”, the target mRNA inhibition was found to be 5%. With CACGCAATGGCAAAAG (sugars k3 d10 k3, PS), the target mRNA inhibition (SK-MEL-28, 4 µM) stood at 19%. The same measure, in the same setting: for GGCCGGCCCGGGCGCA (sugars k3 d10 k3, PS) the value was 1%. Consider GGCGCATAGGTCCTTC (sugars k3 d10 k3, PS), for which the target mRNA inhibition (MM.1R, 1 µM) is -7%. Same read-out and setting: for CATTGCTAGATTCTCC (sugars k3 d10 k3, PS) the value was 18% and 30%.

Consider TAGGTGCTTGTTGAAT (sugars k3 d10 k3, PS), for which the target mRNA inhibition (SK-MEL-28, 4 µM) was 50%. Regarding GGAGAATTAAGAAGAC (sugars k3 d10 k3, PS), the target mRNA inhibition (SK-MEL-28, 4 µM) was 32%. For the sequence AGAGTGAGATGCGGAG (sugars k3 d10 k3, PS), where the note is “MM.1R, 1 µM”, the target mRNA inhibition is 65% and 63%. Same read-out and setting: for “CCTCAGTTTGTGAAGC (sugars kkdddddddddkekek, PS)” the value was 15%; for “AGTTGTAAATGAGTCG (sugars kdddddddddkekeke, PS)”, 47%.

On to CACATTTGAGAGCTAC (sugars k3 d10 k3, PS), for which the target mRNA inhibition (SK-MEL-28, 4 µM) turned out to be 74%. Still for that read-out and setting: as for TAGAGGAATGGCGGAT (sugars k3 d10 k3, PS), the figure is 45%. As to “GATGTGATAGCTGAGC (sugars kkddddddddddkeke, PS)”, under “MM.1R, 1 µM”, the target mRNA inhibition stood at 64%. As to TGCCAGTGGTGGCCGC (sugars k3 d10 k3, PS), under “SK-MEL-28, 4 µM”, the target mRNA inhibition amounted to 30%. On to ACCCAGCTAATGAGAG (sugars k3 d10 k3, PS), for which, under “SK-MEL-28, 4 µM”, the target mRNA inhibition is 35%.

CGCCGAAGTCAACAGG (sugars k3 d10 k3, PS): the target mRNA inhibition (SK-MEL-28, 4 µM) was 44%. The same measure, in the same setting: for TCACAAGCTGGGCCTT (sugars k3 d10 k3, PS) the value was 30%; for CCCCAAAGAGAGTGGG (sugars k3 d10 k3, PS), -11%. For “GATTATATACTGGTTG (sugars kkdddddddddkekek, PS)”, the target mRNA inhibition (MM.1R, 1 µM) is 45%. On to TGGCACCAAGGTCCAG (sugars k3 d10 k3, PS), for which the target mRNA inhibition (SK-MEL-28, 4 µM) was 1%. On the same count and under the same terms, for GCGCAAAACCCCTCAA (sugars k3 d10 k3, PS) the value was 22%. The same measure, in the same setting: for GGGCAGGTTTCATTTC (sugars k3 d10 k3, PS) the value was 32%; for CCGAACTCTCCGCCTC (sugars k3 d10 k3, PS), 36%.

In the case of ACCTGAATAGGAAGAT (sugars k3 d10 k3, PS), the target mRNA inhibition (SK-MEL-28, 4 µM) was 31%. As for ACAAGCATAAAAGGTT (sugars k4 d8 k4, PS), the target mRNA inhibition (SK-MEL-28, 4 µM) is 40%.

Take CCACGAAGATTCAAAA (sugars k3 d10 k3, PS): where the note is “MM.1R, 1 µM”, the target mRNA inhibition is -7%. With ATCTTCACTGTTAGCT (sugars k3 d10 k3, PS), where the note is “SK-MEL-28, 4 µM”, the target mRNA inhibition was 74%. For CCTAAATCACCCTGGT (sugars k3 d10 k3, PS), the target mRNA inhibition (SK-MEL-28, 4 µM) came out at 27%.

ACGCAATCTTCTGCTG (sugars k3 d10 k3, PS): under “SK-MEL-28, 4 µM”, the target mRNA inhibition is 52%.

Consider GTAGTATGAGAAACGG (sugars k3 d10 k3, PS), for which the target mRNA inhibition (SK-MEL-28, 4 µM) is 83% and 80%. As for CTAGTCAGTGTCAATA (sugars k3 d10 k3, PS), the target mRNA inhibition (SK-MEL-28, 4 µM) amounted to 51%.

For GGCCTTTACAAAGAAC (sugars k3 d10 k3, PS), the target mRNA inhibition (SK-MEL-28, 4 µM) is -19%. Consider TAATCTGTATCATGCA (sugars k3 d10 k3, PS), for which the target mRNA inhibition (MM.1R, 1 µM) worked out at 22%. Still for that read-out and setting: for AAAGAATGGCGCATAG (sugars k3 d10 k3, PS) the value was 10%.

For AAGGTTCCTGTCACCT (sugars k4 d8 k4, PS), the target mRNA inhibition (SK-MEL-28, 4 µM) amounted to 14%. TGTGCAAAACCAGTAC (sugars k3 d10 k3, PS): the target mRNA inhibition (MM.1R, 1 µM) was -20%. For the sequence AAGCACTGGCATTGAG (sugars k3 d10 k3, PS), the target mRNA inhibition (SK-MEL-28, 4 µM) stood at 42%. Same read-out and setting: as for GTATGAGAAACGGCCT (sugars k3 d10 k3, PS), the figure is 59%. Regarding AGGCAGGGACCGCGCC (sugars k3 d10 k3, PS), under “MM.1R, 1 µM”, the target mRNA inhibition is -11%.
